Results as given in patent publication US7438933B2, “Maternal multi-nutrient against diabetes-related birth defects” (The Board of Trustees of the University of Arkansas System, priority 2004, dated 2008).

Tests used:
diabetic pregnancies = settings: experimental models; reduced from 25%; cited from earlier work
yolk sacs = assay: DNA laddering assay of apoptosis in embryonic yolk sacs after maternal supplementation; assay type: in vivo, rat; settings: embryos of diabetic mothers with supplemented diet, FIG. 7
Procedure: To determine whether hyperglycemia is associated with programmed cell death in embryos, DNA laddering was examined in yolk sacs of embryos with either diabetic or non-diabetic mothers. Yolk sac tissues were collected from embryos, and DNA was extracted using DNeasy Tissue Kit (Qiagen, Valencia, Calif.) and resolved on 0.5% agarose gel. […] To examine whether supplemented diets affected apoptosis in developing embryos of diabetic dams, DNA fragmentation (an indicator of apoptosis) was analyzed using DNA laddering assays.

embryos of diabetic rats = assay: Dietary supplementation of pregnant STZ-diabetic and non-diabetic rats; neural tube defects in E12 embryos; assay type: in vivo, rat; settings: supplemented diet from day 1 of pregnancy, embryos at E12
Procedure: To induce diabetes, 8-week-old Sprague-Dawley female rats are injected with 65 mg/kg of streptozotocin via the tail vein. Blood glucose levels are monitored daily (by tail vein puncture using a lancet) using a Prestige Smart blood glucose meter (Home Diagnostics, Fort Lauderdale, Fla.). Once a level of hyperglycemia indicative of diabetes (>250 mg/dl) is achieved, a sustained-release insulin pellet (Linplant, Linshin, Canada) will be inserted subcutaneously.
When glucose levels are restored to normal (80-150 mg/dl) and are stable for at least three continuous days, matings can be set up with male rats of the same strain. Day zero of pregnancy is established by identifying spermatozoa in vaginal smears. At designated developmental stages, insulin pellets are withdrawn to generate hyperglycemia in the pregnant rats. A group of control rats will continuously receive insulin during the course of the experiment. Glucose levels and maternal weight are continuously monitored during the pregnancy. Since it has already been shown that there is no difference in embryonic development between streptozotocin/insulin-treated and non-streptozotocin-treated animals, the streptozotocin/insulin-treated groups are used as an equivalent of non-diabetic control. At the end of the experiment, rats are euthanized and embryos dissected out of the uterus for examination and analysis. At least four pregnant rats are included in each group, from which 40-60 embryos can be obtained for examination. For each type of study, at least three replicate experiments will be carried out.
To investigate the effects of maternal hyperglycemia on embryonic malformations, the investigators employed a rat model that induces diabetes by streptozotocin (STZ). Subcutaneously implanted insulin pellets maintained euglycemia at the time of mating. On day 4 of pregnancy, the insulin pellets were removed, and the developing embryos were exposed to hyperglycemia during organogenesis (days 9-12). To maintain a euglycemic control, insulin pellets were retained in the body during the entire experimental course. On day 12, both sets of rats were euthanized, embryos were dissected out of the uteri for examination, and each embryo's yolk sac was collected for biochemical and molecular analyses.
After removal from the dams, embryos were examined under a dissecting microscope and assessed for morphological malformations in a number of categories to determine the effects of maternal hyperglycemia. […]
At E12, embryos were dissected out of uteri and evaluated for neural tube defects (NTDs), which were used as a measure of malformation rates.

JNK1/2 = assay: Western blot of phosphorylated JNK1/2 in embryonic yolk sac cells; assay type: in vivo, rat; settings: diabetic dams with supplemented diet, changed to the levels of non-diabetic rats, FIG. 8
Procedure: (§1) The active forms of ERK and JNK are phosphorylated, so their activation in yolk sac tissues were assessed by Western blot detection of the corresponding phosphoproteins. The levels of phosphorylated Raf-1 which activates ERKs and Akt which is an antiapototic protein were also assessed by western blot. Yolk sac tissues were isolated, protein was extracted and analyzed using Western blotting with antibodies specific for phosphorylated ERK-1 and -2 (p-ERK1/2), JNK-1 and -2 (p-JNK1/2), RAF-1 and Akt (FIG. 6A). […] Levels of phosphorylated ERK1/2, JNK1/2, Raf-1 and Akt in embryonic yolk sac cells were evaluated using Western blot assays.

caspase3 = assay: Western blot of phosphorylated caspase3 in yolk sac cells; assay type: in vivo, rat; settings: embryos of diabetic dams with supplementation, FIG. 4A
Text: (§2) Apoptosis is mediated by a program involving a number of factors, including caspase3 and Bax (a member of the Bcl-2 family). Hyperglycemia may stimulate JNK activity, which then activates caspases and leads to apoptosis. Activation of Bax is also a hallmark of ongoing apoptosis. To determine whether caspase and Bax activation are involved in maternal diabetic embryopathy, changes in the levels of phosphorylated caspase3 and Bax in yolk sac cells from embryos with either diabetic or non-diabetic mothers were assessed. Cell lysates were resolved on 12% polyacrylamide gel and blotted on nylon membrane. The blots were probed with antibodies raised against phosphorylated caspase3 or Bax (Santa Cruz Biotechnologies, Santa Cruz, Calif.). Signals were detected using a chemiluminescence detection method and exposed to X-ray film (FIG. 4A). The density of the bands on X-ray film was measured using densitometry (VersaDoc Imaging System, Bio-Rad, Hercules, Calif.) and analyzed with one-dimensional analysis software (Bio-Rad; FIGS. 4B and C). The value of each band was calculated as a percentage of the control, which was set at 100%.

Bax = assay: Western blot of phosphorylated Bax in yolk sac cells; assay type: in vivo, rat; settings: embryos of diabetic dams with supplementation, FIG. 4A
Text: as §2

ERK1/2 = assay: Western blot of phosphorylated ERK1/2 in embryonic yolk sac cells; assay type: in vivo, rat; settings: diabetic dams with supplemented diet, changed to the levels of non-diabetic rats, FIG. 8
Procedure: as §1

In the case of `O=C(O)CCCC[C@@H]1CCSS1` (racemic) [lipoic acid], the “malformation rate in diabetic pregnancies” value (diabetic pregnancies) is listed as 10%.

For `CCCCC/C=C\C/C=C\C/C=C\C/C=C\CCCC(=O)O` [arachidonic acid], the “DNA fragmentation (DNA laddering) in yolk sacs” value (yolk sacs) was “DNA fragmentation was eliminated”, the “NTDs (%)” value (embryos of diabetic rats; diabetic rats) was 7.6% and the “NTDs (%)” value (embryos of diabetic rats; non-diabetic rats) was 4.1%. For the same molecule, the “level of activated JNKs (p-JNK1/2) in embryonic yolk sacs” value (JNK1/2) was “altered embryo levels of activated ERKs and JNKs”, the “phosphorylated caspase3 level in yolk sacs” value (caspase3) was “reversal of increased caspase3 and Bax levels” and the “phosphorylated Bax level in yolk sacs” value (Bax) was “reversal of increased caspase3 and Bax levels”. The “level of activated ERKs (p-ERK1/2) in embryonic yolk sacs” value (ERK1/2) was “altered embryo levels of activated ERKs and JNKs”.

For `Cc1c(C)c2c(c(C)c1O)CC[C@@](C)(CCC[C@H](C)CCC[C@H](C)CCCC(C)C)O2` [vitamin E, α-tocopherol], the “DNA fragmentation (DNA laddering) in yolk sacs” value (yolk sacs) was “DNA fragmentation was eliminated”, the “NTDs (%)” value (embryos of diabetic rats; diabetic rats) was 6.9% and the “NTDs (%)” value (embryos of diabetic rats; non-diabetic rats) was 5.0%. For the same molecule, the “level of activated JNKs (p-JNK1/2) in embryonic yolk sacs” value (JNK1/2) was “altered embryo levels of activated ERKs and JNKs”, the “phosphorylated caspase3 level in yolk sacs” value (caspase3) was “reversal of increased caspase3 and Bax levels” and the “phosphorylated Bax level in yolk sacs” value (Bax) was “reversal of increased caspase3 and Bax levels”. The “level of activated ERKs (p-ERK1/2) in embryonic yolk sacs” value (ERK1/2) was “altered embryo levels of activated ERKs and JNKs”.
